Some test systems named below: DU-145; EKVX; HCC 2998; HCT-15; HL-60; HOP-62; HT-29; MOLT-4; NCI-H226; NCI-H522; NCI/ADR-RES; PC-3; RXF 393; SK-OV-3; SN12C; SNB-19; T47D; UACC-257; UO-31; Hs-578T.
Test in all cases: inhibition of tumour cell growth, NCI panel, 48 h

The values that follow come from ChEMBL document CHEMBL1201862, “PubChem BioAssay data set” (2004).

The structures appear in SMILES notation.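 In this assay, cells in 96-well plates receive the compound at five concentrations for 48 hours. Endpoints are linearly interpolated between the surrounding concentrations. At the GI50, growth is halved.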 The source made the active and inactive calls. Cut-off read from the data, not from the text of the source: active = GI50 up to about 1.1 µM and inactive = higher. Where a SMILES comes first, the peptide text is derived from it. The star is where a group is joined. ONb = O=[N+]([O-])c1ccc(CO*)cc1; Boc = CC(C)(C)OC(=O)*

In the case of `Nc1ccc(C(=O)NN2C(=O)[C@H](Cl)C2c2ccc(Cl)cc2)cc1` (stereo partly specified), the GI50 in the assay with DU-145 was 1.56 µM (inactive); in the assay on EKVX it was 3.55 µM (inactive); in the assay on HCC 2998, 1.65 µM (inactive); in the assay with HCT-15, 0.646 µM; in the assay on HL-60, 1.91 µM (inactive); in the assay on HOP-62, 1.77 µM (inactive). Moreover, the GI50 was 0.156 µM (active) in the assay on HT-29; 1.09 µM (active) with MOLT-4; 0.714 µM (active) in the assay with NCI-H226; 2.03 µM (inactive) in the assay on NCI-H522; 1.65 µM (inactive) in the assay with NCI/ADR-RES; 1.6 µM (inactive) in the assay on PC-3. Moreover, the GI50 in the assay on RXF 393 was 2.72 µM (inactive); in the assay on SK-OV-3, 1.88 µM (inactive); in the assay on SN12C it was 1.04 µM (active); with SNB-19, 1.67 µM (inactive); in the assay on T47D, 1.85 µM (inactive); with UACC-257, 1.74 µM (inactive). For the same compound, the GI50 with UO-31 is 2.07 µM (inactive).
As for `CC(C)(C)n1c(=O)n(-c2ccccc2)n(C(C)(C)C)c1=O`, the GI50 in the assay with EKVX is > 100 µM (inactive); in the assay on HCC 2998, > 100 µM (inactive); with HCT-15, over 100 µM; with HL-60 it was > 100 µM (inactive); in the assay with HOP-62, > 100 µM (inactive); in the assay with HT-29, > 100 µM (inactive). The GI50 with Hs-578T, in the assay on MOLT-4, in the assay on NCI-H226, with NCI/ADR-RES, in the assay with PC-3 and with RXF 393 was > 100 µM (inactive) each time. In addition, the GI50 in the assay with SK-OV-3, with SN12C, in the assay with SNB-19, in the assay with UACC-257 and in the assay on UO-31 was > 100 µM (inactive) in each case.
In the case of `CSc1ncnc2c1ncn2CCC(=O)O`, the GI50 in the assay with DU-145, in the assay on EKVX, in the assay with HL-60, in the assay with HOP-62, with HT-29 and in the assay on MOLT-4 was > 100 µM (inactive) throughout. The GI50 in the assay on NCI-H226, with NCI-H522, in the assay on NCI/ADR-RES, in the assay with PC-3, with RXF 393 and in the assay with SK-OV-3 was > 100 µM (inactive) in each case. The GI50 in the assay with SN12C, in the assay with SNB-19, in the assay with UACC-257 and with UO-31 was > 100 µM (inactive) each time.
Turning to `CN(c1ccc(Cl)cc1)S(=O)(=O)c1cccc([N+](=O)[O-])c1`, the GI50 in the assay with DU-145 was > 100 µM (inactive); in the assay on EKVX, 66.5 µM (inactive); in the assay with HCC 2998 it was 79.1 µM (inactive); with HCT-15, 47.1 µM; in the assay on HL-60, > 10 µM (inactive); in the assay on HOP-62, 89.3 µM (inactive). Also, the GI50 in the assay with HT-29 was 22.5 µM (inactive); with Hs-578T, > 100 µM (inactive); in the assay with MOLT-4, 17.2 µM (inactive); in the assay on NCI-H226 it was 53.8 µM (inactive); in the assay on NCI-H522 it was 65.5 µM (inactive); with NCI/ADR-RES, 36.7 µM (inactive). The GI50 in the assay with PC-3 was 14.3 µM (inactive); with RXF 393, 45.4 µM (inactive); with SK-OV-3, > 100 µM (inactive); in the assay on SN12C, > 100 µM (inactive); in the assay with SNB-19, > 100 µM (inactive); in the assay with UACC-257, > 100 µM (inactive). Further, the GI50 with UO-31 is 39.9 µM (inactive).
Regarding `CC1[C@@H](OCc2ccccc2)COC(=O)N1Cc1ccccc1` (stereo partly specified), the GI50 was > 100 µM (inactive) in the assay with DU-145; 78.9 µM (inactive) in the assay with EKVX; over 100 µM in the assay with HCT-15; > 100 µM (inactive) in the assay on HOP-62; > 100 µM (inactive) with HT-29; > 100 µM (inactive) with Hs-578T. The GI50 was 33.3 µM (inactive) with MOLT-4; > 100 µM (inactive) with NCI-H226; 49.4 µM (inactive) in the assay on NCI/ADR-RES; 93.8 µM (inactive) in the assay on PC-3; > 100 µM (inactive) with SK-OV-3; > 100 µM (inactive) in the assay with SN12C. Also, the results for the GI50 in the assay with SNB-19, in the assay with UACC-257 and in the assay on UO-31 were > 100 µM (inactive), 68.4 µM (inactive) and 32.7 µM (inactive), respectively.
On to `CC(=O)c1sc2c(c1O)c(=O)n(-c1ccccc1)c(=S)n2-c1ccccc1`, for which the GI50 with DU-145 was > 100 µM (inactive); with HCC 2998, > 100 µM (inactive); with HCT-15, over 100 µM; in the assay on HL-60 it was > 100 µM (inactive); with HT-29, > 100 µM (inactive); in the assay on Hs-578T, > 100 µM (inactive). For the same compound, the GI50 in the assay on MOLT-4, in the assay with NCI-H226, with NCI-H522, in the assay on RXF 393, in the assay on SN12C and with SNB-19 was > 100 µM (inactive) each time. The GI50 with T47D, in the assay on UACC-257 and in the assay on UO-31 was > 100 µM (inactive) throughout.
Consider `COC(=O)c1cc(-c2ccc(-c3ccc(O)cc3)cc2)cc(-c2ccc(-c3ccc(O)cc3)cc2)c1`, for which the GI50 with EKVX was 11.9 µM (inactive); with HCC 2998 it was 11.2 µM (inactive); in the assay on HCT-15, 7.74 µM; in the assay with HOP-62, 12.1 µM (inactive); in the assay with MOLT-4, 10.4 µM (inactive); in the assay on NCI-H226 it was 12.7 µM (inactive). The GI50 was 2.62 µM (inactive) in the assay with NCI-H522; 11.7 µM (inactive) in the assay on NCI/ADR-RES; 10.8 µM (inactive) in the assay on PC-3; 5.62 µM (inactive) in the assay with RXF 393; 15.6 µM (inactive) with SK-OV-3; 13.4 µM (inactive) in the assay with SN12C. Also, the GI50 in the assay with SNB-19 was 15.5 µM (inactive); with T47D, 4.61 µM (inactive); in the assay on UACC-257, 14.1 µM (inactive); in the assay on UO-31, 11.5 µM (inactive).
With `Cc1c(N=C(S)Nc2ccc(Cl)cc2)c(=O)n(-c2ccccc2)n1C`, the GI50 was > 100 µM (inactive) in the assay on DU-145; > 100 µM (inactive) with EKVX; > 100 µM (inactive) in the assay on HCC 2998; over 100 µM in the assay on HCT-15; > 100 µM (inactive) in the assay with HL-60; > 100 µM (inactive) with HOP-62. For the same compound, the GI50 with HT-29, in the assay with Hs-578T, with MOLT-4, with NCI-H226, in the assay with NCI-H522 and with NCI/ADR-RES was > 100 µM (inactive) throughout. Further, the GI50 with PC-3, in the assay with RXF 393, with SK-OV-3, in the assay with SNB-19, in the assay on UACC-257 and in the assay with UO-31 was > 100 µM (inactive) throughout.
For `CC(C)CC(NC(=O)OC(C)(C)C)C(=O)NC(CCC(=O)OCc1ccc([N+](=O)[O-])cc1)C(=O)OCc1ccc([N+](=O)[O-])cc1` (stereo not drawn) (Boc-Leu-Glu(ONb)-ONb; configuration not given here), the GI50 was 13.5 µM (inactive) with DU-145; 49.2 µM (inactive) in the assay with EKVX; 23 µM (inactive) in the assay on HCC 2998; over 100 µM in the assay with HCT-15; 4.05 µM (inactive) with HL-60; > 100 µM (inactive) in the assay on HOP-62. Moreover, the GI50 in the assay with HT-29 is 21.2 µM (inactive); in the assay with MOLT-4, 13 µM (inactive); in the assay with NCI-H522 it was 4.57 µM (inactive); with NCI/ADR-RES, > 100 µM (inactive); with PC-3, 27.9 µM (inactive); in the assay with SN12C it was > 100 µM (inactive). Moreover, the GI50 with SNB-19 is > 100 µM (inactive); in the assay with T47D, 92.3 µM (inactive); with UACC-257, 43.8 µM (inactive); in the assay on UO-31 it was 82.6 µM (inactive).
